The test concerns the target IL-23R-expressing DB cells (Homo sapiens, UniProt Q5VWK5). As to the kind of experiment: DB Cells IL23R pSTAT3 Cell Assay. The following applies: pSTAT3 (HTRF) in IL-23R-expressing DB cells, 0.5 nM IL-23, 30 minutes; Table 6 'IL-23 Cell Data'. Format: cell-based. The procedure: IL-23 is believed to play a central role in supporting and maintaining Th17 differentiation in vivo. This process is thought to be mediated primarily through the Signal Transducer and Activator of Transcription 3 (STAT3), with phosphorylation of STAT3 (to yield pSTAT3) leading to upregulation of RORC and pro-inflammatory IL-17. […] DB cells (ATCC #CRL-2289), cultured in RPMI-1640 medium (Thermo Scientific #11875093) supplemented with 10% FBS, were added at 5 X 10E5 cells/well and incubated for 30 minutes at 37° C. in a 5% CO2 humidified incubator. Changes in phospho-STAT3 levels in the cell lysates were detected using the Cisbio HTRF pSTAT3 (Tyr705) Cellular Assay Kit (Cisbio #62AT3PEH), according to manufacturer's Two Plate Assay protocol. Where not shown or it is marked as “0”, data was not yet determined.
For orientation: In TR-FRET formats the signal depends on donor and acceptor labels being close together.

In general, pIC50 refers to −log10 of the IC50, conventionally taken in molar units. Higher therefore signals a small IC50.

Molecules are shown by their SMILES. pIC50: −log10 of the molar value. Starred links: 1 amine or outer side, 2 acyl side, 3 side chain; linkers in the order of their positions; H or OH if unused. Positions of bridges follow the written chain, without caps; N, C: chain ends. Non-standard residues stand in square brackets, D forms with d. Residues, ends and D or L forms follow the SMILES beside them. Groups on a side chain read outwards from the residue. *: point of attachment. CH3O(CH2CH2O)11CH2CH2CO = COCCOCCOCCOCCOCCOCCOCCOCCOCCOCCOCCOCCC(=O)*; PEG12 = NCCOCCOCCOCCOCCOCCOCCOCCOCCOCCOCCOCCOCCC(=O)O; Trp(7-Me) = Cc1cccc2c(C[C@H](N)C(=O)O)c[nH]c12; C18 diacid = O=C(O)CCCCCCCCCCCCCCCCC(=O)*; γGlu = O=C(O)[C@H](CCC(=O)[*:2])N[*:1]; 2Nal = N[C@@H](Cc1ccc2ccccc2c1)C(=O)O; Palmitoyl = CCCCCCCCCCCCCCCC(=O)*; 3Pal = N[C@@H](Cc1cccnc1)C(=O)O; αMeL = CC(C)C[C@](C)(N)C(=O)O; PEG4 = NCCOCCOCCOCCOCCC(=O)O; Pen = CC(C)(S)[C@H](N)C(=O)O; αMeK = C[C@](N)(CCCCN)C(=O)O; X3 = COCCOCCOCCOCCC(=O)*; Thp = NC1(C(=O)O)CCOCC1; Sar = CNCC(=O)O Where only a bound is given, the exact number is not on record here.

IL-23R-expressing DB cells, sequence (Q5VWK5 24-629 limits assumed): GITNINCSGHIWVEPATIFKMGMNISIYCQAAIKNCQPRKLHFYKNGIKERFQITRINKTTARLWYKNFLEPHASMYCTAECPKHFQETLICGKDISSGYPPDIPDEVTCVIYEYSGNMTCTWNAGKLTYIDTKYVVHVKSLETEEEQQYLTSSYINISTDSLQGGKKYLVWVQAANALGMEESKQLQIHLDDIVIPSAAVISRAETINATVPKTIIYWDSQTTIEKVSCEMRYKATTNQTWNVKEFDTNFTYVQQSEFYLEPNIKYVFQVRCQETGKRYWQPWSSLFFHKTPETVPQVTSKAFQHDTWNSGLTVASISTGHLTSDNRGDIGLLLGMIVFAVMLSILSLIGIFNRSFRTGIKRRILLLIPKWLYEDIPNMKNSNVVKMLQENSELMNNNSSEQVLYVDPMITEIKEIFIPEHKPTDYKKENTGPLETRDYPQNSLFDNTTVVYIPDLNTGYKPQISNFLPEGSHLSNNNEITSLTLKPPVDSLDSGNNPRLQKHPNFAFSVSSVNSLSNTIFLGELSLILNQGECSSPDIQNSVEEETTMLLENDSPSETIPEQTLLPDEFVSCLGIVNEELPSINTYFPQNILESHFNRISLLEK

For the compound `COCCOCCOCCOCCOCCOCCOCCOCCOCCOCCOCCOCCC(=O)N[C@@H]1C(=O)N[C@@H](CC(C)C)C(=O)N[C@@H]([C@@H](C)O)C(=O)N[C@@H](Cc2c[nH]c3c(C)cccc23)C(=O)N[C@@H](CCCCNC(C)=O)C(=O)N[C@H](C(=O)N[C@@H](Cc2ccccc2)C(=O)N[C@@H](Cc2ccc3ccccc3c2)C(=O)N[C@@](C)(CC(C)C)C(=O)N[C@@H](CC(C)C)C(=O)N[C@@H](CC(N)=O)C(=O)N[C@@H](Cc2cccnc2)C(=O)N(C)CC(N)=O)C(C)(C)SSC1(C)C` [Example 209, [PEG12_OMe]-[Pen]-L-T-[Trp(7-Me)]-[Lys(Ac)]-[Pen]-F-[2Nal]-[aMeLeu]-L-N-[3Pal]-[Sarc]-NH2] ({CH3O(CH2CH2O)11CH2CH2CO}-[Pen]LT[Trp(7-Me)]K(Ac)[Pen]F[2Nal][αMeL]LN[3Pal][Sar]-NH2; disulfide 1-6), the pIC50 is 10.15. Regarding `COCCOCCOCCOCCC(=O)N[C@@H]1C(=O)N[C@@H](CC(N)=O)C(=O)N[C@@H]([C@@H](C)O)C(=O)N[C@@H](Cc2c[nH]c3c(C)cccc23)C(=O)N[C@@H](CCCCNC(C)=O)C(=O)N[C@H](C(=O)N[C@@H](Cc2ccccc2)C(=O)N[C@@H](Cc2ccc3ccccc3c2)C(=O)N[C@@](C)(CC(C)C)C(=O)N[C@@H](CC(C)C)C(=O)N[C@@H](CC(N)=O)C(=O)N[C@@H](Cc2cccnc2)C(=O)N(C)CC(N)=O)C(C)(C)SSC1(C)C` [Example 211, [PEG4_OMe]-[Pen]-N-T-[Trp(7-Me)]-[Lys(Ac)]-[Pen]-F-[2Nal]-[aMeLeu]-L-N-[3Pal]-[Sarc]-NH2] (X3-[Pen]NT[Trp(7-Me)]K(Ac)[Pen]F[2Nal][αMeL]LN[3Pal][Sar]-NH2; disulfide 1-6), the pIC50 was 10.21. In the case of `COCCOCCOCCOCCC(=O)N[C@@H]1C(=O)N[C@@H](CC(C)C)C(=O)N[C@@H]([C@@H](C)O)C(=O)N[C@@H](Cc2c[nH]c3c(C)cccc23)C(=O)N[C@@H](CCCCNC(C)=O)C(=O)N[C@H](C(=O)N[C@@H](Cc2ccccc2)C(=O)N[C@@H](Cc2ccc3ccccc3c2)C(=O)N[C@@](C)(CC(C)C)C(=O)N[C@@H](CC(C)C)C(=O)N[C@@H](CC(N)=O)C(=O)N[C@@H](Cc2cccnc2)C(=O)N(C)CC(N)=O)C(C)(C)SSC1(C)C` [Example 213, [PEG4_OMe]-[Pen]-L-T-[Trp(7-Me)]-[Lys(Ac)]-[Pen]-F-[2Nal]-[aMeLeu]-L-N-[3Pal]-[Sarc]-NH2] (X3-[Pen]LT[Trp(7-Me)]K(Ac)[Pen]F[2Nal][αMeL]LN[3Pal][Sar]-NH2; disulfide 1-6) it was 9.89; in that of `CCCCCCCCCCCCCCCC(=O)N[C@@H](CCC(=O)NCCOCCOCCOCCOCCOCCOCCOCCOCCOCCOCCOCCOCCC(=O)NCCCC[C@](C)(NC(=O)[C@H](Cc1ccc2ccccc2c1)NC(=O)[C@H](Cc1ccc(OC)cc1)NC(=O)[C@H]1NC(=O)[C@H](CCCCNC(C)=O)NC(=O)[C@H](Cc2c[nH]c3c(C)cccc23)NC(=O)[C@H]([C@@H](C)O)NC(=O)[C@H](CC(N)=O)NC(=O)[C@@H](NC(C)=O)C(C)(C)SSC1(C)C)C(=O)N[C@@H](C)C(=O)N[C@@H](C)C(=O)N[C@@H](Cc1cccnc1)C(=O)N(C)CC(N)=O)C(=O)O` [Example 225, Ac-[Pen]-N-T-[Trp(7-Me)]-[Lys(Ac)]-[Pen]-[Phe(4-OMe)]-[2Nal]-[aMeLys(PEG12_IsoGlu_Palm)]-A-A-[3Pal]-[Sarc]-NH2], 9.09.

Regarding `CCCCCCCCCCCCCCCC(=O)N[C@@H](CCC(=O)NCCOCCOCCOCCOCCOCCOCCOCCOCCOCCOCCOCCOCCC(=O)NCCCC[C@](C)(NC(=O)[C@H](Cc1ccc2ccccc2c1)NC(=O)[C@H](Cc1ccc(OC)cc1)NC(=O)[C@H]1NC(=O)[C@H](CCCCNC(C)=O)NC(=O)[C@H](Cc2c[nH]c3c(C)cccc23)NC(=O)[C@H]([C@@H](C)O)NC(=O)[C@H](C)NC(=O)[C@@H](NC(C)=O)C(C)(C)SSC1(C)C)C(=O)N[C@@H](CCCCNC(C)=O)C(=O)N[C@@H](CC(N)=O)C(=O)N[C@@H](Cc1cccnc1)C(=O)N(C)CC(N)=O)C(=O)O` [Example 226, Ac-[Pen]-A-T-[Trp(7-Me)]-[Lys(Ac)]-[Pen]-[Phe(4-OMe)]-[2Nal]-[aMeLys(PEG12_IsoGlu_Palm)]-[Lys(Ac)]-N-[3Pal]-[Sarc]-NH2] (Ac-[Pen]AT[Trp(7-Me)]K(Ac)[Pen]Y(Me)[2Nal][αMeK]([PEG12-γGlu-Palmitoyl])K(Ac)N[3Pal][Sar]-NH2; disulfide 1-6), the pIC50 was 9.20. The pIC50 values of the last two compounds are within 0.2 log units of each other. `CCCCCCCCCCCCCCCC(=O)N[C@@H](CCC(=O)NCCOCCOCCOCCOCCOCCOCCOCCOCCOCCOCCOCCOCCC(=O)NCCCC[C@H](NC(=O)C1(NC(=O)[C@H](Cc2ccc3ccccc3c2)NC(=O)[C@H](Cc2ccc(OC)cc2)NC(=O)[C@H]2NC(=O)[C@H](CCCCNC(C)=O)NC(=O)[C@H](Cc3c[nH]c4c(C)cccc34)NC(=O)[C@H]([C@@H](C)O)NC(=O)[C@H](CC(C)C)NC(=O)[C@@H](NC(C)=O)C(C)(C)SSC2(C)C)CCOCC1)C(=O)N[C@@H](CC(C)C)C(=O)N[C@@H](Cc1cccnc1)C(=O)N(C)CC(N)=O)C(=O)O` [Example 243, Ac-[Pen]-L-T-[Trp(7-Me)]-[Lys(Ac)]-[Pen]-[Phe(4-OMe)]-[2Nal]-[THP]-[Lys(PEG12_IsoGlu_Palm)]-L-[3Pal]-[Sarc]-NH2] (Ac-[Pen]LT[Trp(7-Me)]K(Ac)[Pen]Y(Me)[2Nal][Thp]K([PEG12-γGlu-Palmitoyl])L[3Pal][Sar]-NH2; disulfide 1-6) showed a pIC50 of 8.37. In the case of `COc1ccc(C[C@H](NC(=O)[C@H]2NC(=O)[C@H](CCCCNC(=O)CCOCCOCCOCCOCCNC(=O)CCCCCCCCCCCCCCCCC(=O)O)NC(=O)[C@H](Cc3c[nH]c4c(C)cccc34)NC(=O)[C@H]([C@@H](C)O)NC(=O)[C@H](CC(C)C)NC(=O)[C@@H](NC(C)=O)C(C)(C)SSC2(C)C)C(=O)N[C@@H](Cc2ccc3ccccc3c2)C(=O)NC2(C(=O)N[C@@H](CC(C)C)C(=O)N[C@@H](CC(C)C)C(=O)N[C@@H](Cc3cccnc3)C(=O)N(C)CC(N)=O)CCOCC2)cc1` [Example 262, Ac-[Pen]-L-T-[Trp(7-Me)]-[Lys(PEG4_C18_Diacid)]-[Pen]-[Phe(4-OMe)]-[2Nal]-[THP]-L-L-[3Pal]-[Sarc]-NH2] (Ac-[Pen]LT[Trp(7-Me)]K([PEG4-C18 diacid])[Pen]Y(Me)[2Nal][Thp]LL[3Pal][Sar]-NH2; disulfide 1-6) it was under 8.00; in that of `COc1ccc(C[C@H](NC(=O)[C@H]2NC(=O)[C@H](CCCCNC(=O)CCOCCOCCOCCOCCOCCOCCOCCOCCOCCOCCOCCOCCNC(=O)CC[C@H](NC(=O)CCCCCCCCCCCCCCCCC(=O)O)C(=O)O)NC(=O)[C@H](Cc3c[nH]c4c(C)cccc34)NC(=O)[C@H]([C@@H](C)O)NC(=O)[C@H](CC(C)C)NC(=O)[C@@H](NC(C)=O)C(C)(C)SSC2(C)C)C(=O)N[C@@H](Cc2ccc3ccccc3c2)C(=O)NC2(C(=O)N[C@@H](CC(C)C)C(=O)N[C@@H](CC(C)C)C(=O)N[C@@H](Cc3cccnc3)C(=O)N(C)CC(N)=O)CCOCC2)cc1` [Example 268, Ac-[Pen]-L-T-[Trp(7-Me)]-[Lys(PEG12_IsoGlu_C18_Diacid)]-[Pen]-[Phe(4-OMe)]-[2Nal]-[THP]-L-L-[3Pal]-[Sarc]-NH2] (Ac-[Pen]LT[Trp(7-Me)]K([PEG12-γGlu-C18 diacid])[Pen]Y(Me)[2Nal][Thp]LL[3Pal][Sar]-NH2; disulfide 1-6), under 8.00.

Compound `COc1ccc(C[C@H](NC(=O)[C@H]2NC(=O)[C@H](CCCCNC(=O)CC[C@H](NC(=O)CCCCCCCCCCCCCCCCC(=O)O)C(=O)O)NC(=O)[C@H](Cc3c[nH]c4c(C)cccc34)NC(=O)[C@H]([C@@H](C)O)NC(=O)[C@H](CC(C)C)NC(=O)[C@@H](NC(C)=O)C(C)(C)SSC2(C)C)C(=O)N[C@@H](Cc2ccc3ccccc3c2)C(=O)NC2(C(=O)N[C@@H](CCCCNC(C)=O)C(=O)N[C@@H](CC(C)C)C(=O)N[C@@H](Cc3cccnc3)C(=O)N(C)CC(N)=O)CCOCC2)cc1` [Example 271, Ac-[Pen]-L-T-[Trp(7-Me)]-[Lys(IsoGlu_C18_Diacid)]-[Pen]-[Phe(4-OMe)]-[2Nal]-[THP]-[Lys(Ac)]-L-[3Pal]-[Sarc]-NH2] (Ac-[Pen]LT[Trp(7-Me)]K([γGlu-C18 diacid])[Pen]Y(Me)[2Nal][Thp]K(Ac)L[3Pal][Sar]-NH2; disulfide 1-6) had a pIC50 of under 8.00.

Values taken from patent publication US12478617B2, “Lipidated peptide inhibitors of interleukin-23 receptor” (JANSSEN BIOTECH, INC., priority 2021, dated 2025).
